Measured values published in PubChem BioAssay AID1963829 (Molecular Pharmacology Branch, DTP, NCI, 2024).
pIC50: −log10 of the molar value. Where “and” joins values, the source holds several entries; their conditions need not be identical. Equal entries are not always repeated.

Test system: 935938-334-R-J1-PDC complex spheroid viability
Experiment: Anticancer human tumor 935938-334-R-J1-PDC patient-derived small intestine adenocarcinoma cell line growth inhibition [POLQ]
Conditions: for viability, T/C: stronger effect = lower value
Description: Multicellular complex tumor spheroid response to Polymerase (POL) inhibitors (novobiocin, ART-558, RP6685) in combination with a variety of drugs and investigational agents in selected tumor cell lines
The POL inhibitors (novobiocin, ART-558, and RP6685) were evaluated both individually and in combination with standard of care and investigational anticancer small molecules within a complex spheroid model of solid tumors. . Complex spheroids include a stromal component modeled by human endothelial cells (HUVEC) and fibroblasts modeled by human mesenchymal stem cells (MSCs). The concentration ranges selected for each drug and investigational agent were based upon clinically achievable concentrations if the clinical Cmax of the agent was known.
Compounds. The drugs and investigational agents: novobiocin (NSC847541), ART-558 (NSC835418), RP-6685 (NSC848927), peposertib (NSC802822), ceralasertib (NSC780249), elimusertib (NSC800525), camonsertib (NSC841442), AZD-1390 (NSC803789), olaparib (NSC753686), talazoparib (NSC767125), rucaparib (NSC756644), sotorasib (NSC818433), MRTX-1133 (NSC836407), SN-38 (NSC673596), topotecan (NSC609699), epotoside (NSC141540), doxorubicin (NSC123127), gemcitabine (NSC613327), 5-fluorouracil (NSC19893), paclitaxel (NSC125973), vemurafenib (NSC761431), MSA-2 (NSC828583), SN-011 (NSC837082), adavosertib (NSC754352), prexasertib (NSC758257), carboplatin (NSC241240) and oxaliplatin (NSC266046), were obtained from the National Cancer Institute (NCI) Developmental Therapeutics Program Chemical Repository (21). The FDA-approved anticancer drug set is available from the Developmental Therapeutics Program at https://dtp.cancer.gov/organization/dscb/obtaining/. […] The stock solutions were prepared in dimethyl sulfoxide (DMSO, Sigma-Aldrich, St. Louis, MO, cat. D2650), except for the platinum compounds which were prepared in saline (Quality Biological, Gaithersburg, MD, cat. 114-055-101), at 800-fold the tested concentration and stored at -70 degrees C prior to their use. All drugs and investigational agents were tested over a range starting from a high concentration at or near the clinical Cmax and decreasing in half-log increments. If the clinical Cmax for an agent had not been determined, the highest concentration tested was 10 microM, except for SN-38, which was tested at a high concentration of 1 microM.
Cell Culture. All cells were maintained in an incubator at 37 degrees C and 5% CO2 with 95% humidity. The PDC lines were cultured according to standard operating procedures established by the NCI PDMR (https://pdmr.cancer.gov). Table 3 of the manuscript, lists the cell lines along with the number of the three cell types plated to form the mct-spheroids and media for tumor cell growth. After thawing, all PDC lines, except 997537-175-T-J1-PDC and 415267-285-R-J2-PDC, were cultured in Matrigel-coated flasks prepared with a working solution of 1X Ham's F-12 nutrient mix, without supplementation (Thermo Fisher Scientific, cat. 11765054), 100 U/mL penicillin-streptomycin (Thermo Fisher Scientific, cat. 15140122), and 2.5% Matrigel (Corning Inc., Corning, NY, cat. 354248) for the first three passages. The two PDC lines 997537-175-T-J1-PDC and 415267-285-R-J2-PDC were cultured on uncoated flasks. The 857933-349-R-J2-PDC line was cultured in 6C/Colon 1B media containing advanced DMEM/F-12 (Thermo Fisher Scientific, cat. 12634028), 10 mM HEPES (Thermo Fisher Scientific, cat. 15630080), 1X GlutaMAX supplement (Thermo Fisher Scientific, cat. 35050061), 0.1 mg/mL primocin (InvivoGen, San Diego, CA, cat. ant-pm-2), 10% defined fetal bovine serum, heat inactivated (HyClone Laboratories Inc., Logan, UT, cat. SH30070.03HI), 50% L-WRN conditioned media (ATCC, cat. CRL-3276), 1.25 mM N-Acetyl-L-cysteine (Sigma-Aldrich, cat. A9165), 10 mM nicotinamide (Sigma-Aldrich, cat. N0636), 1X B-27 supplement (Thermo Fisher Scientific, cat. 17504044), 1X N-2 supplement (Thermo Fisher Scientific, cat. […]
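Further: spheroids exposed to drugs for seven days before viability read.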
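Wherever viability, T/C is given: 100% = DMSO vehicle control wells.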

## CC1COCCN1c1cc(-c2ccnn2C)c2ccnc(-c3ccn[nH]3)c2n1 (stereo unspecified)
Compound 0.0316 µM
  viability, T/C: 82.6% and 80.7% and 109%
Compound 0.1 µM
  viability, T/C: 48.1% and 37.2% and 43.2%
Compound 0.316 µM
  viability, T/C: 23.7% and 26.6% and 25.3%
Compound 1 µM
  viability, T/C: 19.7% and 18.6% and 15.1%
Compound 3.16 µM
  viability, T/C: 17.2% and 15.3% and 17.5%
Compound 10 µM
  viability, T/C: 19.2% and 18.9% and 18.3%
Curve of compound
  pIC50: 7.03 and 7.14 and 7.05

## CCc1cc2c(N3CCc4c(cc(Cn5ccnc5)cc4-c4cn(C)nc4C(F)(F)F)C3=O)ccnc2c(OC)n1 + Cc1cccc(N(C)C(=O)C2C(O)CCN2c2nc(C)cc(C(F)(F)F)c2C#N)c1
Curve of first compound, second compound 0.0316 µM
  pIC50: < 5.00
Curve of first compound, second compound 0.1 µM
  pIC50: < 5.00
Curve of first compound, second compound 0.316 µM
  pIC50: < 5.00
Curve of first compound, second compound 1 µM
  pIC50: < 5.00
Curve of first compound, second compound 3.16 µM
  pIC50: < 5.00
Curve of first compound, second compound 10 µM
  pIC50: < 5.00
Second compound 0.0316 µM, first compound 0.0316 µM
  viability, T/C: 69.1%
Second compound 0.0316 µM, first compound 0.1 µM
  viability, T/C: 66.5%
Second compound 0.0316 µM, first compound 0.316 µM
  viability, T/C: 68.8%
Second compound 0.0316 µM, first compound 1 µM
  viability, T/C: 58.4%
Second compound 0.0316 µM, first compound 3.16 µM
  viability, T/C: 69.4%
Second compound 0.0316 µM, first compound 10 µM
  viability, T/C: 55.3%
Second compound 0.1 µM, first compound 0.0316 µM
  viability, T/C: 74.5%
Second compound 0.1 µM, first compound 0.1 µM
  viability, T/C: 75%
Second compound 0.1 µM, first compound 0.316 µM
  viability, T/C: 63.2%
Second compound 0.1 µM, first compound 1 µM
  viability, T/C: 54.5%
Second compound 0.1 µM, first compound 3.16 µM
  viability, T/C: 60.6%
Second compound 0.1 µM, first compound 10 µM
  viability, T/C: 55.8%
Second compound 0.316 µM, first compound 0.0316 µM
  viability, T/C: 61.5%
Second compound 0.316 µM, first compound 0.1 µM
  viability, T/C: 87.3%
Second compound 0.316 µM, first compound 0.316 µM
  viability, T/C: 64.2%
Second compound 0.316 µM, first compound 1 µM
  viability, T/C: 59.7%
Second compound 0.316 µM, first compound 3.16 µM
  viability, T/C: 69.5%
Second compound 0.316 µM, first compound 10 µM
  viability, T/C: 64.1%
Second compound 1 µM, first compound 0.0316 µM
  viability, T/C: 98.3%
Second compound 1 µM, first compound 0.1 µM
  viability, T/C: 54.9%
Second compound 1 µM, first compound 0.316 µM
  viability, T/C: 58.3%
Second compound 1 µM, first compound 1 µM
  viability, T/C: 67.8%
Second compound 1 µM, first compound 3.16 µM
  viability, T/C: 65.8%
Second compound 1 µM, first compound 10 µM
  viability, T/C: 57.6%
Second compound 3.16 µM, first compound 0.0316 µM
  viability, T/C: 78.3%
Second compound 3.16 µM, first compound 0.1 µM
  viability, T/C: 68.3%
Second compound 3.16 µM, first compound 0.316 µM
  viability, T/C: 67.9%
Second compound 3.16 µM, first compound 1 µM
  viability, T/C: 79%
Second compound 3.16 µM, first compound 3.16 µM
  viability, T/C: 71.8%
Second compound 3.16 µM, first compound 10 µM
  viability, T/C: 57.8%
Second compound 10 µM, first compound 0.0316 µM
  viability, T/C: 95.5%
Second compound 10 µM, first compound 0.1 µM
  viability, T/C: 62.8%
Second compound 10 µM, first compound 0.316 µM
  viability, T/C: 81.6%
Second compound 10 µM, first compound 1 µM
  viability, T/C: 65.8%
Second compound 10 µM, first compound 3.16 µM
  viability, T/C: 61.2%
Second compound 10 µM, first compound 10 µM
  viability, T/C: 51.9%

## Nc1ccc(C#CCN(C(=O)Cc2ncc(C(F)(F)F)cc2C(F)(F)F)c2ccc(F)cc2)nn1
Compound alone, run of 12/05/2023
  pIC50: < 5.00

## COc1cccc2c1C(=O)c1c(O)c3c(c(O)c1C2=O)CC(O)(C(=O)CO)CC3OC1CC(N)C(O)C(C)O1 (stereo unspecified)
Compound 0.0316 µM
  viability, T/C: 68.8% and 69.1% and 56.6%
Compound 0.1 µM
  viability, T/C: 39.8% and 38.5% and 102%
Compound 0.316 µM
  viability, T/C: 25.9% and 33.7% and 25.3%
Compound 1 µM
  viability, T/C: 23.2% and 22.7% and 24.1%
Compound 3.16 µM
  viability, T/C: 7.61% and 6.31% and 3.97%
Compound 10 µM
  viability, T/C: 6.95% and 3.94% and 4.69%
Curve of compound
  pIC50: 7.15 and 7.10 and 6.73

## CCc1cc2c(N3CCc4c(cc(Cn5ccnc5)cc4-c4cn(C)nc4C(F)(F)F)C3=O)cc(C)nc2c(OC)n1
Compound 0.0316 µM
  viability, T/C: 63.3% and 77.3% and 86.5%
Compound 0.1 µM
  viability, T/C: 98.4% and 69.4% and 64.3%
Compound 0.316 µM
  viability, T/C: 72.6% and 62.2% and 67.1%
Compound 1 µM
  viability, T/C: 65.5% and 59.4% and 67.5%
Compound 3.16 µM
  viability, T/C: 65.5% and 71.2% and 67.9%
Compound 10 µM
  viability, T/C: 57.6% and 57% and 58.1%
Curve of compound
  pIC50: < 5.00

## Nc1ccn(C2OC(CO)C(O)C2(F)F)c(=O)n1 (stereo unspecified)
Compound 0.0316 µM
  viability, T/C: 39.8% and 30.9% and 30.5%
Compound 0.1 µM
  viability, T/C: 26.2% and 19.4% and 23.6%
Compound 0.316 µM
  viability, T/C: 23.7% and 17.5% and 14.9%
Compound 1 µM
  viability, T/C: 22.1% and 18.1% and 16%
Compound 3.16 µM
  viability, T/C: 20.7% (2×) and 16.5%
Compound 10 µM
  viability, T/C: 18.4% and 16% and 17.2%
Curve of compound
  pIC50: > 7.50
